Test results from PubChem BioAssay AID588780 (Sanford-Burnham Center for Chemical Genomics, 2011).
The source made the active and inactive calls.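 Rule for the calls: active = compounds whose fitted half-maximal concentration in the cell-protection dose series is at or below a set limit; inactive = the rest.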

These compounds were tested on H9c2 cardiomyocytes, 2-deoxyglucose stress, ATP luminescence, 2 h (assay: H9c2 cell survival under 2-deoxyglucose stress – uHTS hits, dose response (AID 588780)).

| SMILES | IC50 |
| --- | --- |
| CC(C(=O)NC1CCCC1)N(C(=O)Cn1nnc(-c2ccc(F)cc2)n1)c1ccccc1F (configuration not stated) | > 79 µM (inactive) |
| COc1ccc(/C=N/NC(=O)c2sccc2OCc2ccc(F)cc2)cc1OC | 15.4 µM |
| O=C(CSc1nc2ccccc2c(=O)[nH]1)c1ccc(O)cc1O | 33.1 µM (inactive) |
| CC(=O)c1cccc(NC(=O)Nc2ccc3c(c2)N(C)C(=O)CS3)c1 | > 79 µM (inactive) |
| Nc1ccc2nc(-c3cccs3)[nH]c2c1 | > 79 µM (inactive) |
| O=C(COC(=O)c1ccc([N+](=O)[O-])s1)Nc1ccc(Cl)cn1 | > 79 µM (inactive) |
| CCOc1ccc(NCc2cc3c(C(C)(C)C)nn(-c4ccccc4)c3[nH]c2=O)cc1 | > 79 µM (inactive) |
| CC(=O)Nc1cccc(-c2cc(NC(C)=O)c3ncc(-c4cccc(C(C)=O)c4)n3c2)c1 | > 79 µM (inactive) |
| COc1ccc(C(=O)COC(=O)Cn2[nH]c(=O)c3ccccc3c2=O)c(OC)c1 | > 79 µM (inactive) |
| COc1ccc(NC(=O)COc2cccc3c2CCNC3=O)cc1 | > 79 µM (inactive) |
| O=C(COC(=O)Cn1[nH]c(=O)c2ccccc2c1=O)NNC(=O)c1ccc(Br)cc1 | > 79 µM (inactive) |
| O=C(COC(=O)Cn1[nH]c(=O)c2ccccc2c1=O)Nc1c(Cl)cccc1C(F)(F)F | > 79 µM (inactive) |
| Cc1ccccc1NC(=O)COc1cccc2c1CCNC2=O | > 79 µM (inactive) |
| O=c1[nH]c2ccccc2c2ccccc12 | > 79 µM (inactive) |
| CCN(c1ccc(NC(=O)COC(=O)c2ccc([N+](=O)[O-])o2)cc1)C(C)C | > 79 µM (inactive) |
| CCOC(=O)c1ccccc1NC(=O)c1ccc2c(=O)n3c(nc2c1)CCCCC3 | > 79 µM (inactive) |
| COc1ccc(-c2cc(-c3nnc(COC(=O)c4ccncc4)o3)c3ccccc3n2)cc1OC | 11.4 µM |
| Cn1c(/C=N/NC(=O)c2ccccc2)nc2ccccc21 | > 79 µM (inactive) |
| O=c1[nH]c(-c2cccnc2)nc2ccccc12 | > 79 µM (inactive) |
| CCOC(=O)C1=NN(C(=O)c2ccco2)C2(CC2)C1 | > 79 µM (inactive) |
| O=C(O)c1ccc2c(c1)S(=O)(=O)c1cc(N3CCN(c4cnccn4)CC3)ccc1C2=O | > 79 µM (inactive) |
| Cn1c2c(c(=O)n(C)c1=O)C(c1ccc(Br)cc1)Nc1ccccc1O2 (configuration not stated) | > 79 µM (inactive) |
| O=C(Nc1nc(-c2ccccn2)cs1)c1ccccc1-n1cnnn1 | > 79 µM (inactive) |
| Cc1ccc(C(c2c(C)n(C)n(-c3ccccc3)c2=O)c2c(C)n(C)n(-c3ccccc3)c2=O)s1 | > 79 µM (inactive) |
| Cc1c(C=O)c2ccccn2c1C(=O)c1ccc(Cl)c([N+](=O)[O-])c1 | > 79 µM (inactive) |

| SMILES | IC50 |
| --- | --- |
| CCOC(=O)N1CCC(n2c(SCC(=O)N3CCC(C)CC3)nc3ccccc3c2=O)CC1 | > 79 µM (inactive) |
| COc1ccc2[nH]c(=O)c(CN(CC3CCCO3)S(=O)(=O)c3ccccc3F)cc2c1 (configuration not stated) | 15.9 µM |
| CC(C)(C)NC(=O)c1cc(NC(=O)c2cccs2)cc(NC(=O)c2cccs2)c1 | > 79 µM (inactive) |
| COc1ccc2c(c1OC)C(=O)N1c3ccccc3C(=O)N(c3ccccc3)C21 (configuration not stated) | > 79 µM (inactive) |
| CC(C)(C)OC(=O)NCCCCCNC(=O)c1[nH]cnc1C(=O)Nc1ccc(Cl)cc1 | > 79 µM (inactive) |
| CCCCc1cc(=O)oc2cc(O)ccc12 | > 79 µM (inactive) |
| COc1ccc(C(=O)COC(=O)Cc2n[nH]c(=O)c3ccccc23)c(OC)c1 | > 79 µM (inactive) |
| CCC(CC)C(=O)Nc1cc(C)c2c(=O)oc3ccccc3c2n1 | > 79 µM (inactive) |
| O=c1cc(-c2ccncc2)oc2ccccc12 | > 79 µM (inactive) |
| CC(C)=CCc1ccc(O)c(=O)cc1C(C)C | > 79 µM (inactive) |
| CCC(=O)OCCNc1cc(SCCC(=O)OC)c2nonc2c1[N+](=O)[O-] | > 79 µM (inactive) |
| COc1ccccc1-c1cc(NC=O)c2ncc(-c3cccc(C(C)=O)c3)n2c1 | > 79 µM (inactive) |
| CCOC(=O)c1cnc(SC)nc1Oc1cccc(NC(=O)c2cccc(Cl)c2Cl)c1 | 20.4 µM |
| CCCNC(=O)c1ccc2c(=O)c(O)c(-c3ccc(C)cc3)[nH]c2c1 | > 79 µM (inactive) |
| Cc1ccc(S(=O)(=O)N2CCN(C(=O)CCc3nc4ccccc4c(=O)[nH]3)CC2)c(C)c1 | > 79 µM (inactive) |
| COc1ccc(NCc2cc3cc(OC)ccc3[nH]c2=O)cc1 | > 79 µM (inactive) |
| COCCn1ccc2c(OCC(=O)Nc3ccccc3OC)cccc2c1=O | 20.8 µM |
| CC(C)(C)OC(=O)CNC(=O)c1[nH]cnc1C(=O)NCC(=O)OCc1ccccc1 | > 79 µM (inactive) |
| COC(=O)c1[nH]c2cc(OC)c(OC)cc2c1/C=N/Nc1ccccc1 | > 79 µM (inactive) |
| Cc1cc(C)cc(OCC(=O)Nc2cccc(-c3nc4ncccc4o3)c2)c1 | > 79 µM (inactive) |
| Cc1ccc(C(=O)Nc2nc(-c3ccccn3)cs2)s1 | > 79 µM (inactive) |
| Cn1c2c(c(=O)n(C)c1=O)C(c1cccc([N+](=O)[O-])c1)Nc1ccccc1O2 (configuration not stated) | > 79 µM (inactive) |
| CCn1c2ccccc2c2nc3cc(OC)c(OC)cc3nc21 | > 79 µM (inactive) |
| COc1cc(CCNc2ccc3nnc(-c4ccccc4)n3n2)cc(OC)c1OC | 23.9 µM |
| O=Cc1ccc(OCc2cccc(C(F)(F)F)c2)cc1O | 28.1 µM |

| SMILES | IC50 |
| --- | --- |
| N#C/C(=C\c1ccc(-c2cccc([N+](=O)[O-])c2)o1)C(=O)NCCN1CCOCC1 | > 79 µM (inactive) |
| O=C1NC(c2ccc(Cl)c([N+](=O)[O-])c2)Nc2ccccc21 (configuration not stated) | > 79 µM (inactive) |
| COc1cc(-n2c(=O)c3ccccc3n(Cc3cc(=O)n4ccccc4n3)c2=O)cc(OC)c1OC | > 79 µM (inactive) |
| CC1(C)Oc2ccc3ccc(=O)oc3c2/C(=C/Nc2ccccn2)C1=O | 10.2 µM |
| Cc1c(NC(=O)Cn2[nH]c(=O)c3ccccc3c2=O)c(=O)n(-c2ccccc2)n1C | > 79 µM (inactive) |
| Cc1cc(C)c(S(=O)(=O)N2CCN(C(=O)c3cc(=O)[nH]c4ccccc34)CC2)c(C)c1 | 19.3 µM |
| COc1cc(OC)cc(C(=O)Nc2ccc(C(=O)Nc3ccccc3OC)cc2)c1 | 15.9 µM |
| COc1cc(C(=O)NNC(=O)c2ccc3ccccc3n2)cc(OC)c1OC | > 79 µM (inactive) |
| Cc1ccc(C)c(NC(=O)C(Sc2nc3ccccc3c(=O)n2CC(C)C)c2ccccc2)c1 (configuration not stated) | > 79 µM (inactive) |
| COc1ccc(S(=O)(=O)N(CCCN2CCCC2=O)Cc2cc3cc(C)c(C)cc3[nH]c2=O)cc1 | 26.9 µM |
| O=C(CSc1ccc(-c2ccccn2)nn1)N1CCCc2ccccc21 | > 79 µM (inactive) |
| CCN(CC(=O)Nc1c(F)cccc1F)C(=O)Cn1[nH]c(=O)c2ccccc2c1=O | > 79 µM (inactive) |
| O=C1c2ccccc2NC(c2ccc([N+](=O)[O-])cc2)N1O (configuration not stated) | > 79 µM (inactive) |
| CCC(=O)N1CCN(c2ccc(NC(=O)c3cc4ccccc4o3)cc2Cl)CC1 | > 79 µM (inactive) |
| CC(=O)Nc1cccc(NC(=O)CSc2ccc(-c3ccccn3)nn2)c1 | > 79 µM (inactive) |
| COc1cc(/C=C(\C#N)C(=O)Nc2ccccc2F)ccc1OCCN1CCOCC1 | 25.9 µM |
| COc1cc(/C=c2\s/c(=C(/C#N)C(=O)N3CCCC3)n(-c3ccccc3)c2=O)ccc1O | 25 µM |
| CCOC(=O)C(C)Oc1ccc(C2NC(=O)NC(C)=C2C(C)=O)cc1Br (configuration not stated) | > 79 µM (inactive) |
| COc1cc(/C=N/NC(=O)c2ccccc2O)ccc1OCC(=O)Nc1ccccc1 | > 79 µM (inactive) |
| Cc1ccc(NC(=O)c2nc[nH]c2C(=O)NCCCNC(=O)c2[nH]cnc2C(=O)Nc2ccc(C)cc2)cc1 | 21.5 µM |
| COc1cc(NC(=O)c2csc(-c3ccncc3)n2)cc(C(=O)Nc2cccc(C(F)(F)F)c2)c1 | 8.47 µM |
| COc1ccccc1OP(=O)(Nc1cccnc1)Oc1ccccc1OC | > 79 µM (inactive) |
| Cc1c(Cl)cccc1NC(=O)CNC(=O)Cc1n[nH]c(=O)c2ccccc12 | > 79 µM (inactive) |
| COc1cccc(N2CC(C(=O)NCc3n[nH]c(=O)c4ccccc34)CC2=O)c1 (configuration not stated) | > 79 µM (inactive) |
| CCOC(=O)C1=C(COC(=O)/C=C/c2ccc(F)cc2)NC(=O)NC1C (configuration not stated) | 16.2 µM |

| SMILES | IC50 |
| --- | --- |
| Cc1nnc(SCC(=O)N/N=C/c2cn(-c3ccccc3)nc2-c2ccccc2)n1-c1ccccc1 | 14 µM |
| COc1ccc(OC)c(Nc2nc(N)nc(-c3cc4ccccc4o3)n2)c1 | > 79 µM (inactive) |
| CCOc1ccc(C(=O)COC(=O)Cn2[nH]c(=O)c3ccccc3c2=O)cc1 | > 79 µM (inactive) |
| O=C(CSc1nnc(-c2cccnc2)n1Cc1ccco1)c1ccccc1 | > 79 µM (inactive) |
| O=C(Oc1cccc2c(=O)[nH]ccc12)c1ccccc1 | 9.07 µM |
| COc1cc(NC(=O)c2cccc3c(-c4cnn(C)c4)coc23)cc(OC)c1OC | > 79 µM (inactive) |
| N#Cc1c(-c2cccs2)cc(-c2cccnc2)nc1N | > 79 µM (inactive) |
| CC/C(C)=N\N=C\c1c(O)n(CC)c2cc(C3=NNC(=O)CC3)ccc12 | 32.4 µM (inactive) |
| CCC(C)Nc1ncnc2c1cnn2Cc1ccc(Cl)cc1 (configuration not stated) | > 79 µM (inactive) |
| COc1ccc(NCc2n[nH]c(=O)c3ccccc23)cc1 | > 79 µM (inactive) |
| O=C(COc1ccccc1Cl)NNC(=O)Cn1[nH]c(=O)c2ccccc2c1=O | > 79 µM (inactive) |
| CCOc1cccc(-c2nn3c(-c4ccco4)nnc3s2)c1 | 22.6 µM |
| O=c1c2ccccc2nc(-c2ccc(Cl)c(Cl)c2)n1O | 8.16 µM |
| COc1cccc2cc(-c3cc(=O)oc4ccc(OCC(C)=O)cc34)oc12 | > 79 µM (inactive) |
| CCc1nnc(NC(=O)CSc2nnc(CNc3ccc(OC)cc3)n2C)s1 | > 79 µM (inactive) |
| O=C(COc1cccc2c1CCNC2=O)Nc1ccc(F)cc1 | > 79 µM (inactive) |
| COc1cc(/C=N/NC(=O)c2cccnc2)ccc1OS(=O)(=O)c1ccc(F)cc1 | 14.1 µM |
| CCOC(=O)c1c(C)[nH]c(C)c1C(=O)COc1ncnc2cc([N+](=O)[O-])ccc12 | 14.6 µM |
| CCCNC(=O)c1ccc2c(=O)c(O)c(-c3ccc(F)cc3)[nH]c2c1 | > 79 µM (inactive) |
| O=c1[nH]nc(CNc2ccc(O)cc2)c2ccccc12 | > 79 µM (inactive) |
| CCOC(=O)Cn1c(=NC(=O)c2cc(-c3cccs3)nc3ccccc23)sc2cc(S(N)(=O)=O)ccc21 | > 79 µM (inactive) |
| O=CNc1cc(-c2ccc(C(=O)NC3CC3)cc2)cn2c(-c3ccc(F)c(Cl)c3)cnc12 | > 79 µM (inactive) |
